Assays:
[1] = tested on: spleen lymphocytes induced by Con A; test: Detection of cell proliferation inhibition: Con A-induced spleen lymphocyte proliferation (CCK-8); type: cell-based; conditions: Mus musculus; for inhibition at 2 µM: concentration 2 μM; for inhibition at 2 µM / inhibition at 4 µM / inhibition at 8 µM / inhibition at 16 µM / inhibition at 32 µM / inhibition at 64 µM: read-out: Inhibitory rate (%) on the proliferation of spleen lymphocytes induced by Con A; for inhibition at 4 µM: concentration 4 μM; for inhibition at 8 µM: concentration 8 μM; for inhibition at 16 µM: concentration 16 μM; for inhibition at 32 µM: concentration 32 μM; for inhibition at 64 µM: concentration 64 μM; for IC50: linear fit of inhibition rate against log concentration, ConA final 7.5 μg/mL, 48 h
Protocol: (§1) 3.2.1 Cell acquisition: BABL/C male mice ere sacrificed after eyeball extraction and bloodletting, soaked in 75% ethanol for 10 mint, and the spleen was aseptically removed in an ultra-clean workbench, and placed in a petri dish filled with PBS. A syringe was used to absorb PBS to rinse the surface and interior of the spleen until the spleen turned white, then the spleen was gently torn up with tweezers. The spleen was gently crushed with a 5 mL syringe on the steel mesh to make a single-cell suspension, which was filtered through a 200-mesh sieve. The filtrate was centrifuged for 10 min (1000 rpm/min); after centrifugation, the supertnatant was discarded. After the cell pellet was resuspended with PBS, the mixture was centrifuged again for 10 min (1000 rpm/min), and the operation was repeated once; 2 mL of erythrocyte lysate was added to the cell pellet. After the mixture was mixed evenly and allowed to stand for 5 min, 8 mL of PBS was added to nx evenly, and then the mixture was centrifuged at 1000 rpm min for 5 min. After centrifugation, the supernatant was discarded, the cell pellet was resuspended with PBS, then the mixture was centrifuged again for 10 min (1000 rpm/min), and the operation was repeated once; after centrifugation, the supematant ias discarded, the cell pellet was suspended in 1 mL of RPMI-1640 complete medium (containing 10% fetal bovine serum and 1% double antibody). 2-3 mL medium was added to dilute. A cell counter was used for cell counting (new cell type), and complete medium was used to adjust the cell concentration to 2*10^6 cells/mL.
(§2) 3.2.2 Stunple preparation: appropriate amount of compounds 1, 2, 3, and 4 were dissolved in DMSO respectively to prepare 64 mM mother solution, and then diluted with medium to obtain solutions with a concentration of 128 μM respectively, and then gradiently diluted with medium to obtain sample dilutions with concentrations of 64 μM, 32 μM, 16 μM, 8 μM, and 4 μM, respectively.
3.2.4 Detection of cell proliferation inhibition: the prepared cell suspension was added to the 96-well plate. The seeding cell density was 2*10^5 cells/well, and the added cell volume was 100 μL. Samples were added at 100 μL, with 5 replicate wells for each concentration, and then incubated in a 37° C., 5% CO2 incubator for 12 h. 10 μL of the supernatant were carefully suck out. 10 μL ConA with a concentration of 150 μg/mL (final concentration: 7.5 μg/mL) was added to the corresponding group, and then the mixture was incubated in a 37° C., 5% CO2 incubator for 48 h, and finally incubated in a 37° C. incubator for 4-5 hours with serum-free medium and 10% CCK-8. The absorbance (A) value of each well was detected at 450 nm by a microplate reader. A negative control group and a model control group were set up, which were cells+1640 medium, cells+ConA+1640 medium, respectively.
The proliferation inhibition rate of the sample to spleen lymphocytes was calculated according to the following formula:
Proliferation inhibition rate %=[(Am−As)/(Am−Ac)]×100% • Am: Absorbance of model control group (spleen lymphocytes+ConA+CCK-8) • As: Absorbance of sample group (spleen lymphocytes+samples to be tested+ConA+CCK-8) • Ac: Absorbance of negative control group (spleen lymphocytes+CCK-8)
The experimental results of compounds 1. 2, 3.

[2] = tested on: spleen lymphocytes; test: Detection of cell viability (CCK-8) of spleen lymphocytes; type: cell-based, mouse; conditions: 64, 32, 16, 8, 4, and 2 μM; 60 h incubation; compared with the control group
Protocol: as §1, §2
3.2.3 Detection of cell viability: the prepared cell suspension was added to a 96-well plate. The seeding cell density was 2*10^5 cells/well, and the added cell volume was 100 μL. Compounds 1, 2, 3, and 4 were added at 100 μL/well, with 5 replicate wells for each concentration, and then incubated in a 37° C. 5% CO2 incubator for 60 h, and then incubated in a 37° C. incubator for 4-5 hours with serum-free medium and 10% CCK-8. The absorbance (A) value of each well was detected at 450 nm by a inicroplate reader. […]
3.2.5 Data processing: the proliferation rate (viability) of the sample to spleen hymphocytes was calculated according to the following formula:
Proliferation rate %=[As/Ac]×100% • As: Absorbance of sample group (spleen lymphocytes+samples to be tested+CCK-8) • Ac: Absorbance of control group (spleen lymphocytes+CCK-8)

| Structure (SMILES) | inhibition at 2 µM [1] [%] | inhibition at 4 µM [1] [%] | inhibition at 8 µM [1] [%] | inhibition at 16 µM [1] [%] | inhibition at 32 µM [1] [%] | inhibition at 64 µM [1] [%] | IC50 [1] [µM] | cytotoxic effect on spleen lymphocytes [2] |
| --- | --- | --- | --- | --- | --- | --- | --- | --- |
| CCCCCCCCCCCCC/C=C/[C@@H](O)C(=O)N[C@@H](CO[C@@H]1O[C@H](CO)[C@@H](O)[C@H](O)[C@H]1O)[C@H](O)/C=C/CC/C=C(\C)CCCCCCCCC [Compound 1] | 130 | 136 | 146 | 150 | 148 | 152 | 4 | no cytotoxic effect |
| CCCCCCCCCCC/C=C/[C@@H](O)C(=O)N[C@@H](CO[C@@H]1O[C@H](CO)[C@@H](O)[C@H](O)[C@H]1O)[C@H](O)/C=C/CC/C=C(\C)CCCCCCCCC [Compound 2] | 43.7 | 54.3 | 77.7 | 100 | 126 | 140 | 10.4 | no cytotoxic effect |
| CCCCCCCCC/C=C/CC/C=C/[C@@H](O)[C@H](CO[C@@H]1O[C@H](CO)[C@@H](O)[C@H](O)[C@H]1O)NC(=O)[C@H](O)/C=C/CCCCCCCCCCCC [Compound 3] | 4.5 | 30.9 | 37.4 | 52 | 84.2 | 123 | 19.5 | no cytotoxic effect |
| CCCCCCCCCCCCCCCC(=O)N[C@@H](CO[C@@H]1O[C@H](CO)[C@@H](O)[C@H](O)[C@H]1O)[C@H](O)/C=C/CC/C=C(\C)CCCCCCCCC [Compound 4] | 72.2 | 70.7 | 100 | 102 | 120 | 120 | 1.5 | no cytotoxic effect |

Reference: patent publication US20240150387A1, “GLUCOCEREBROSIDE COMPOUND, PHARMACEUTICAL COMPOSITION THEREOF AND USE THEREOF” (DONGGUAN HEC CORDYCEPS R&D CO., LTD., priority 2021, published 2024)
